# Legend:
# [1] = tested on: nonsense mediated decay (NMD); assay: Targeted RNA-sequencing of indel genes in LS180 cells; format: cell-based; conditions: serial dilution starting at 5 uM, 16 hrs
# Method: LS180 Cells were plated into 96 well plates at 1e4 cells/well. The compound of Formula III was solubilized in DMSO and added in a serial dilution starting at 5 uM and diluting 1:2. Cells were incubated for 16 hrs at 37 C and 5% CO2. RNA was harvested using an RNeasy kit (Qiagen). Reverse transcription was performed per manufacturer's instructions (High Capacity cDNA kit from Applied Biosciences). Primers specific for the indel mutation site for 3 genes were used, and at least one primer from each set overlapped an exon-exon boundary. RNF43 is a common SNP that is heterozygous in LS180 and was used as a negative control. After PCR amplification, products were barcoded with an 8 bp sequence so the well it originated in could be determined, and sequenced on a Miseq (Illumina). Transcripts from the wild type and mutant allele were counted to determine abundance of each with treatment or without (FIG. 8A).
# mutant protein (TP53) [2] = assay: TP53 western blot in H358, LS180 and RPE TP53 KO clone 224; format: cell-based; conditions: 5 uM, 16 hours
# Method: H358 (negative control), LSl80, and RPE TP53 KO line clone 224 were plated (at 1e5 cells per well) into 6 well plates. Wells were treated with 5 uM of the compound of Formula III for 16 hours. Cells were harvested, pelleted and washed with PBS. Cells were lysed using RIPA buffer (Thermo Scientific) and then run through a Qiashredder column (Qiagen) following manufacturer's instructions. Protein was quantified using a BCA Kit (Pierce). 50 ug of protein was loaded into 5-15% polyacrylamide gels (Biorad) and run for 30 min at 200V. Protein was transferred to a nitrocellulose membrane following manufacturer's recommendations and stained with a TP53 protein (clone DO-1 from Cell Signaling) overnight in 3% milk with TBS-T. HRP conjugated secondary antibody was used for detection and imaged on a gel imager (Bio Rad) (FIG. 8B).
# [3] = tested on: nonsense mediated decay (NMD); assay: Targeted RNA-sequencing of subcutaneous H358 and LS180 tumors in nude mice; format: in vivo; conditions: IP dose at 30 mg/kg, H358 or LS180 tumors, 16 hours after treatment
# Method: All animal work was done under the supervision and guidance of Johns Hopkins Animal Care and Use committee with appropriate protocols and humane standards of care. LS180 and H358 cell lines (ATCC) were placed subcutaneously in the back of nude mice (Jackson Laboratories). The compound of Formula III was solubilized in 10% cremaphor (Sigma Aldrich) with 2% glycerol (Sigma Aldrich) and sterilized by 0.22 uM filter (Thermo Scientific). After tumors reached palpable size, about 7 days, mice were treated with […] of the compound of Formula III by IP injection. 16 hours after treatment, mice were sacked, and tumors were harvested and stored in RNA Later (Thermo Scientific). RNA was harvested using an RNeasy kit (Qiagen) and Qiashredder (Qiagen). Reverse transcription was performed per manufacturer's instructions (High Capacity cDNA kit from Applied Biosciences). Primers specific for the indel mutation site for 3 genes were used, and at least one primer from each set overlapped an exon-exon boundary. […] After PCR amplification, products were barcoded with an 8 bp sequence so the well it originated in could be determined, and sequenced on a Miseq (Illumina). Transcripts from the wild type and mutant allele were counted to determine abundance of each with treatment or without (FIGS. 9A-9B).
# [4] = tested on: truncated mutant TP53 protein; assay: TP53 western blot in TP53 knockout clones; format: cell-based; conditions: for expression of truncated mutant TP53 protein: TP53 knockout cell line with homozygous mutation, DO-1 antibody
# Method: (§1) To confirm generality of the NMD HTS hits, validations were performed on isogenic STAG2 and TP53 knockouts in a second cell line background, RPtec (renal) cells. Transcript recovery was first evaluated in STAG2 and TP53 isogenic knockout clones from this second background. […] A TP53 knockout cell line was then selected with a homozygous mutation predicted to generate a truncated TP53 protein readily identifiable by established TP53 antibodies (DO-1). […] Using cell lines where the TP530 isoform transcripts are expected to be intact, an increase in the TP53$ isoform was also observed in cell lines treated with the NMD inhibitors (FIG. 1E middle and left column). […] Based on strong induction of predicted mutant truncated protein across multiple isogenic cell lines LY3023414 was selected as the NMD inhibiting compound of interest. LY3023414 was created as a phosphatidylinositol 3-kinase (PI3K) inhibitor with activity against AKT Serine/Threonine Kinase 1 (AKT1) and Target of Rapamycin (mTOR).
# [5] = tested on: NMD sensitive transcripts (TP53β); assay: Quantitative real time PCR of TP53α and TP53β transcripts in parental RPE1 and RPTec cells; format: cell-based
# Method: as §1
# [6] = tested on: nonsense mediated decay (NMD); assay: RNA sequencing of NCI-H358 and LS180 cancer cell lines; format: cell-based
# Excerpt: (§2) It was next sought to evaluate whether LY3023414 could relieve repression of indel containing transcripts in cancer cells. The microsatellite stable NCI-H358 and microsatellite instable LS180 lung and colorectal cancer cell lines were chosen respectively. Nearly 40% of heterozygous indel and 25% of nonsense single base-pair mutation containing genes show increased expression of their mutant allele when treated with LY3023414 when evaluated by RNA sequencing (FIG. 2A). […] Heterozygous single nucleotide polymorphism (SNP) Ring Finger Protein 43 (RNF43) and drosha ribonuclease […] (DROSHA) served as controls, and allele ratios remain unchanged with treatment (FIG. 2B). To investigate for changes at the protein level, NCI-H358 cells were treated for 24 hours with either LY3023414 or DMSO.
# (§3) Analyzing a wider set of 21 NMD sensitive genes from the RNA-Seq analysis in LS180 confirmed that LY3023414 and SMG1 specific inhibitor increase the same 18 genes with a greater than 80% re-expression rate, in both cell lines. […] As SMG1 inhibition is an off target effect for LY3023414, the concentrations used in this study may result in inhibition of a number of different kinases.
# [7] = tested on: nonsense mediated decay (NMD); assay: Targeted RNA sequencing of heterozygous indel mutations in NCI-H358 and LS180 cells; format: cell-based; conditions: NCI-H358 and LS180, in vitro
# Excerpt: as §2, §3
# (§4) To confirm disruption of downstream signaling of SMG1, a western blot was performed with phosphorylation specific antibodies for UPF1.
# [8] = tested on: NMD targeted mutant protein (EXOC1, SPTAN1); assay: Western blot of mutant proteins in NCI-H358 and LS180 cells; format: cell-based; conditions: NCI-H358 cells, 24 hours
# Excerpt: as §2, §3, §4
# [9] = tested on: nonsense mediated decay (NMD); assay: NCI-H358 and LS180 xenograft tumors in NOD-SCID mice, mutant RNA transcripts and tolerability; format: in vivo
# phosphorylated UPF1 = assay: Phospho-UPF1 specific western blot; format: cell-based; conditions: FIG. 3D
# Method: as §3, §4
# [10] = tested on: nonsense mediated decay (NMD); assay: Ratiometric mutant/wild type transcript sequencing assay (HTS) in RPE1 STAG2 and TP53 isogenic knockout cell lines; format: cell-based
# Excerpt: An experimental system was generated to identify and evaluate NMD inhibitors based on a panel of isogenic cell lines developed to assess tumor suppressor gene function and synthetic lethality. Briefly, common tumor suppressor genes were individually knocked out in multiple non-cancerous cell lines using the Clustered Regularly Interspaced Short Palindromic Repeats (CRISPR)-Cas9 system. As part of this effort, two genes displaying strong activation of NMD in response to indel creation were identified, Stromal Antigen 2 (STAG2) and Tumor Protein p53 (TP53). The absence of detectable protein in these knock out cell lines was verified via western blots against STAG2 and immunohistochemistry for TP53. Further, active RNA decay of the mutant transcripts was identified through whole transcriptome RNA-sequencing. […]
# A high throughput screen (HTS) was then performed by treating the isogenic cell line mixture with the SelleckChem Bioactive library, consisting of 2,658 small molecules and natural products (FIG. 1A). Total RNA was harvested from cells 16 hours post treatment and the gRNA target regions were amplified using a panel of primers (one for TP53 and one for STAG2) and mutant and wild type transcript abundance was quantified using next generation sequencing. […]
# [11] = tested on: mutant form of TP53 protein; assay: Western blot against TP53 in NCI-H716 and NCI-H2228 cell lines
# [12] = tested on: nonsense mediated decay (NMD); assay: Real time PCR of STAG2 transcripts in RPE STAG2 knockout cells; format: cell-based; conditions: serial dilution starting at 10 uM, 16 hrs
# Method: RPE STAG2 knockout cells were created and plated into 96 well plates at 1e4 cells/well. The compound of Formula II was solubilized in DMSO and added in a serial dilution starting at 10 uM and diluting 1:2. Cells were incubated for 16 hrs at 37 C and 5% CO2. RNA was harvested using an RNeasy kit (Qiagen). Real time PCR was performed using primers specific for STAG2 transcripts and at least one primer overlapped an exon-exon boundary (FIG. 7A).
# mutant protein (TP53) [13] = assay: TP53 western blot in TP53 KO lines; format: cell-based; conditions: 5 uM, 16 hours
# Method: TP53 KO lines were created and plated (at 1e5 cells per well) into 6 well plates. Wells were treated with 5 uM of the compound of Formula II for 16 hours. Cells were harvested, pelleted and washed with PBS. Cells were lysed using RIPA buffer (Thermo Scientific) and then run through a Qiashredder column (Qiagen) following manufacturer's instructions. Protein was quantified using a BCA Kit (Pierce). 50 ug of protein was loaded into 5-15% polyacrylamide gels (Biorad) and run for 30 min at 200V. Protein was transferred to a nitrocellulose membrane following manufacturer's recommendations and stained with a TP53 protein (clone DO-1 from Cell Signaling) overnight in 3% milk with TBS-T. HRP conjugated secondary antibody was used for detection and imaged on a gel imager (Bio Rad) (FIG. 7B).
smiles,measurement,setting,value
CNC(=O)Nc1ccc(-c2cc(-c3ccnc(Nc4ccc(Cl)c(S(=O)(=O)N5CCN(C)CC5)c4)n3)ccn2)cc1 [compound of Formula III],mutant RNA re-expression,[1],re-expresses mutant RNA in vitro
same,mutant protein re-expression,mutant protein (TP53) [2],re-expresses mutant protein in vitro
same,in vivo NMD inhibition (re-expression of NMD downregulated genes),[3],in vivo NMD inhibition activity
CO[C@@H](C)Cn1c(=O)n(C)c2cnc3ccc(-c4cncc(C(C)(C)O)c4)cc3c21 [LY3023414],induction of TP53β and mutant TP53 (western blot),"[4]; RPE TP53 clone 223, RPTec TP53 KO 588, full-length not induced",prominently induced
same,expression of truncated mutant TP53 protein,[4],robustly induced expression of the truncated mutant TP53 protein
same,TP53α and TP53β transcript levels,[5],only the NMD regulated (TP53β) transcript levels increased with treatment
same,heterozygous indel containing genes with increased expression of mutant allele,[6],~40%
same,nonsense single base-pair mutation containing genes with increased expression of mutant allele,[6],25%
same,mutant allele RNA expression,[7],significant increased expression of the mutant allele
same,truncated mutant EXOC1 and SPTAN1 protein expression,[8],truncated mutant protein only expressed after treatment with LY3023414
same,autopsies of treated animals,[9]; mice treated with LY3023414,no abnormalities
same,weight loss,[9]; mice treated with LY3023414,severe weight loss
same,expression of mutant RNA transcripts in tumors,"[9]; single dose by oral gavage, tumors harvested over 24 hours",increase in the expression of mutant RNA transcripts
same,phospho-UPF1 levels,phosphorylated UPF1,increases the levels of phospho-UPF
CC[C@H]1CN2CCc3cc(OC)c(OC)cc3[C@@H]2C[C@@H]1C[C@H]1NCCc2cc(OC)c(OC)cc21 [emetine],recovery of mutant RNA transcript expression,[10]; RPE1 STAG2/TP53 knockout cell line mixture,6 fold
O=c1[nH]cc(F)c(=O)[nH]1 [5-fluorouracil],TP53 protein levels,[11],no effect on TP53 levels
COc1ccc(C[C@H]2NC[C@H](O)[C@H]2OC(C)=O)cc1 [Anisomycin],mutant transcript fraction,"[10]; 16 hours post treatment, in all three cell lines, 0.5 = 4 standard deviations above DMSO controls",above 0.5
O=C(CC1NCCCC1O)Cn1cnc2cc(Br)c(Cl)cc2c1=O (centres unmarked) [halofuginone],expression of truncated mutant TP53 protein,[4],robustly induced expression of the truncated mutant TP53 protein
CNC(=O)Nc1ccc(-c2cc(-c3ccnc(Nc4ccc(Cl)c(S(=O)(=O)N(CCO)CCO)c4)n3)ccn2)cc1 [compound of Formula II],mutant RNA re-expression,[12],re-expresses mutant RNA
same,mutant protein re-expression,mutant protein (TP53) [13],re-expresses mutant protein

# From US20260272923A1, “NONSENSE MEDIATED DECAY INHIBITOR COMPOUNDS” (The Johns Hopkins University, priority 2023, published 2026)
